Results as given in patent US20230331710A1, “HETEROCYCLIC COMPOUND, PREPARATION METHOD AND USE THEREOF” (SHANGHAI MEIYUE BIOTECH DEVELOPMENT CO. LTD, priority 2020, published 2023).

Molecular target: T1, complement factor B (Homo sapiens, UniProt P00751)
T1 construct: from tissue; host or cells: normal human serum from healthy volunteers
Assay: Complement hemolytic activity assay (lysis of rabbit erythrocytes by normal human serum)
Format: cell-based
Details: normal human serum in GVB0 buffer with 10 mM Mg-EGTA, 37° C., A415
Protocol: 4. Complement Hemolytic Activity Assay
The hemolysis experiment was carried out by referring to the description in Xuan Yuan et al., Haematologica. […] Prior to the experiment, the optimal concentration of normal human serum (NHS) required to achieve 100% lysis of rabbit erythrocytes (REs) was obtained by titration testing. […] A GVB0 buffer containing 10 mM Mg-EGTA and containing NHS and RE but no test compound was used as a positive control group (100% lysis). A GVB0 buffer containing 10 mM Mg-EGTA and containing inactivated NHS (heated at 56° C. for 30 min or at 65° C. for 5 min) and RE but no test compound was used as a negative control group (0% lysis). The samples were centrifuged at 2000 g for 5 min, and the supernatant was collected. Absorbance at 415 nm (A415) was measured using a microplate reader (Molecular Devices, SpectraMax i3X). IC50 values were calculated from percent hemolysis as a function of test compound concentration by non-linear regression.

T1 sequence (P00751 26-764): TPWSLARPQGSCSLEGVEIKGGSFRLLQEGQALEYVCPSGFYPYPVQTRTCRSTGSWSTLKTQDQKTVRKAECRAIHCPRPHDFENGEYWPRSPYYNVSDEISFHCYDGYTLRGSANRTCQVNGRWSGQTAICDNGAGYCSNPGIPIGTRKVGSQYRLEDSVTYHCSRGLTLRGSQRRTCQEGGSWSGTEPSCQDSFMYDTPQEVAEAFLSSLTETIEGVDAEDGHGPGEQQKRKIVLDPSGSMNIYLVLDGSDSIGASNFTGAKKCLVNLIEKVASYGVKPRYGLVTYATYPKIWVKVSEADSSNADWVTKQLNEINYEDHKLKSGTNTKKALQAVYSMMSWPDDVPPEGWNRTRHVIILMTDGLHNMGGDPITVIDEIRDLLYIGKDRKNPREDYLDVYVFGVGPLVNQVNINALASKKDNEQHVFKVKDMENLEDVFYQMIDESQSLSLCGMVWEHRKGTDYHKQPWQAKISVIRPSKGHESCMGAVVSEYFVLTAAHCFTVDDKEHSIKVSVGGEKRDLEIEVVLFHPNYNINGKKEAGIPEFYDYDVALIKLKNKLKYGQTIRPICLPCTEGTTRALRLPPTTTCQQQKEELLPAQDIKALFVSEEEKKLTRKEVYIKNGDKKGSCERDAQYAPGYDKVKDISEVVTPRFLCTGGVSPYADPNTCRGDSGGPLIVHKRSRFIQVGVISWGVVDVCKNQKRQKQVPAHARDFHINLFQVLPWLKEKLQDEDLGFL

| SMILES | IC50 [µM] |
| --- | --- |
| CCO[C@H]1CCN(Cc2c(OC)cc(C)c3c2CCC(=O)N3)[C@H](c2ccc(C(=O)O)cc2)C1 [Example 16] | > 5 |
| CCO[C@H]1CCN(Cc2c(OC)cc(C)c3c2CCN3)[C@H](c2ccc(C(=O)O)cc2)C1 [Example 1] | 1.5 |
| CCO[C@H]1CCN(Cc2c(OC)cc(C#N)c3[nH]ccc23)[C@H](c2ccc(C(=O)O)cc2)C1 [Example 12] | > 5 |
| CCO[C@H]1CCN(Cc2c(OC)cc(C)c3[nH]cnc23)[C@H](c2ccc(C(=O)O)cc2)C1 [Example 4] | 0.9 |
| CCO[C@H]1CCN(Cc2c(OC)cc(C)c3ccccc23)[C@H](c2ccc(C(=O)O)cc2)C1 [Example 14] | > 5 |
| CCO[C@H]1CCN(Cc2c(OC)cc(C)c3c2CCC3)[C@H](c2ccc(C(=O)O)cc2)C1 [Example 8] | > 5 |
| CCO[C@H]1CCN(Cc2c(C)cc(C)c3ccccc23)[C@H](c2ccc(C(=O)O)cc2)C1 [Example 15] | > 5 |
| CCO[C@H]1CCN(Cc2c(OC)cc(C)c3[nH]ncc23)[C@H](c2ccc(C(=O)O)cc2)C1 [Example 5] | 1.2 |
| CCO[C@H]1CCN(Cc2c(OC)cc(C)c3[nH]nnc23)[C@H](c2ccc(C(=O)O)cc2)C1 [Example 6] | > 5 |
| CCO[C@H]1CCN(Cc2c(OC)cc(C)c3occc23)[C@H](c2ccc(C(=O)O)cc2)C1 [Example 10] | 1.3 |
| CCO[C@H]1CCN(Cc2c(OC)cc(C(F)(F)F)c3[nH]ccc23)[C@H](c2ccc(C(=O)O)cc2)C1 [Example 11] | > 5 |
| CCO[C@H]1CCN(Cc2c(OC)cc(C3CC3)c3[nH]ccc23)[C@H](c2ccc(C(=O)O)cc2)C1 [Example 13] | 1 |
